Entries after “also recorded” stand apart in the source; their conditions may differ. Where two headings read alike, the source gives them in different places.
How the values were obtained:
[1] = system: human PMN; test: PMN phagocytosis of pHrodo-labeled E. coli; type: cell-based; details: 10 μg/mL Cytochalasin D, E. coli 20:1, 30 min 37°C
[2] = target: T1, human FPR1 (Homo sapiens, UniProt P21462); details: cited from earlier work
T1 sequence (P21462 1-350): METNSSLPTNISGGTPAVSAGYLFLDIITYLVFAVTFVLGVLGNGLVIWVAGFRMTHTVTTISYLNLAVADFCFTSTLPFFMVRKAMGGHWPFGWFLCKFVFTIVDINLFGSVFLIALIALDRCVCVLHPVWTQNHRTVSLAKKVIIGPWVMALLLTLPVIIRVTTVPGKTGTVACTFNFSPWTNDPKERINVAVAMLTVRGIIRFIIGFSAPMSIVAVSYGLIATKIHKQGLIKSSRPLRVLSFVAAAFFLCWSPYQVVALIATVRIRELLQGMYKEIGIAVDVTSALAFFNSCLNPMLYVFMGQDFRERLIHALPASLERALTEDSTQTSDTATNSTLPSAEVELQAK

[3] = system: BLT1; test: fMLF-induced heterologous desensitization: LTB4-induced Ca2+ depletion; type: cell-based, human; details: fMLF 10 nM or 100 nM; 100 nM LTB4
[4] = system: Fpr1-KO bone marrow PMN; test: fMLF desensitization of migration to KC, Fpr1-KO mouse BM-PMN; type: cell-based; details: fMLF 100 nM or 1 μM for 45 min; KC 100 ng/mL; 60 min
[5] = system: Fpr2-KO bone marrow PMN; test: fMLF desensitization of migration to KC, Fpr2-KO mouse BM-PMN; type: cell-based; details: fMLF 100 nM or 1 μM for 45 min; KC 100 ng/mL; 60 min
[6] = system: wild type bone marrow PMN; test: fMLF desensitization of migration to KC, wild type mouse BM-PMN; type: cell-based; details: fMLF 100 nM or 1 μM for 45 min; KC 100 ng/mL; 60 min
[7] = system: CXCR2; test: fMLF-induced heterologous desensitization: CXCL1-induced Ca2+ depletion; type: cell-based, human; details: pre-treatment with fMLF; 5 nM CXCL1
[8] = system: CXCR2; test: Surface expression of CXCR2 by flow cytometry; type: cell-based, human; details: 100 nM ND6; with or without 1 μM POL7200 pretreatment
[9] = system: human PMN; details: ref [7]; cited from earlier work
[10] = system: BLT1; test: Surface expression of BLT1 by flow cytometry; type: cell-based, human; details: 100 nM ND6; with or without 1 μM POL7200 pretreatment; 3 separate experiments

C=C1[C@@H](C)[C@H]2[C@H](Cc3ccccc3)NC(=O)[C@]23[C@H](OC(C)=O)/C=C/[C@@](C)(O)C(=O)[C@@H](C)C/C=C/[C@H]3[C@@H]1O [Cytochalasin D]
effect on phagocytosis, positive control [1]: expected suppression of phagocytosis
effect on phagocytosis, positive control ([1]; listed as cytochalasin D): inhibited PMN phagocytosis

N-formyl-methionyl-leucyl phenylalanine [fMLF]
receptor through which it acts ([2]; nanomolar concentrations, ref [17]): acts exclusively through high-affinity human FPR1 receptors
suppression of LTB4-induced Ca2+ response by fMLF pre-treatment [3]: markedly inhibits Ca^2+ flux response to LTB4; also recorded: significantly reduced calcium depletion
effect of fMLF pre-exposure on migration toward KC, Fpr1-KO [4]: PMN migration to KC persisted; also recorded: protected from chemokine desensitization
effect of fMLF pre-exposure on migration toward KC, Fpr2-KO [5]: inhibited migration toward the CXC-chemokine KC; also recorded: desensitized to KC by prior fMLF exposure
effect of fMLF pre-exposure on migration toward KC, wild type [6]: inhibited migration toward the CXC-chemokine KC; also recorded: desensitized to KC by prior fMLF exposure
suppression of CXCL1-induced Ca2+ response by fMLF pre-treatment [7]: strongly inhibits that response; also recorded: significantly reduced calcium depletion

fMMYALF [ND6]
effect on CXCR2 surface expression [8]: significantly reduces expression of CXCR2; also recorded: internalized and decreased the surface expression of CXCR2 and BLT1
receptor through which it acts ([2]; 100 nM, ref [7]): acts exclusively at FPR1
potency as inducer of PMN Ca2+ release/chemotaxis [9]: potent inducer of human PMN Ca^2+ release and chemotaxis; also recorded: even more potent than fMLF; also recorded: most potent human mtFP
effect on BLT1 surface expression [10]: significantly reduces expression of BLT1

Source: article PMC7337247 (Critical care medicine, 2020)
